Measurements taken from paper PMC3125149, “SCYX-7158, an Orally-Active Benzoxaborole for the Treatment of Stage 2 Human African Trypanosomiasis” (PLoS Neglected Tropical Diseases, 2011).
Converted amounts (≈) assume the structure as drawn. Read-outs that look alike come from different tables or passages of the source.

Experiments:
[1] = Pharmacokinetics in uninfected mice; format: in vivo, mouse; conditions: for Kp: read-out: brain to plasma ratio based on AUC0–24 h; for AUC(0-t): read-out: AUC0–24 h
Experimental: The blood distribution, CNS disposition and pharmacokinetics of SCYX-7158 were evaluated in infected or non-infected rodents following intravenous or oral administration of compounds. Pharmacokinetics and bioavailability of SCYX-7158 were also evaluated in non-infected beagle dogs and cynomolgus monkeys. In-life phases of non-infected rodent studies were performed at Vivisource (Waltham, MA); studies in non-naïve cynomolgus monkeys were performed by SNBL USA (Everett, WA). Male CD-1 mice (∼25 g), male Sprague-Dawley rats (∼225 g), or male cynomolgus monkeys (∼3–5 kg) were administered test article by either bolus intravenous injection (IV) or oral gavage. Animals in the IV groups received a single 2 mg/kg IV dose. Animals received oral doses of test articles as either single or twice daily doses ranging from 8 mg/kg to 50 mg/kg. All doses were administered as clear colorless solutions in either 50% (v/v) PEG 400: 20% (v/v) ethanol: 30% (v/v) carboxymethylcellulose (0.5% w/v in sterile water for injection) or 2% (v/v) ethanol: 5% (w/v) dextrose in sterile water for injection. […] For pharmacokinetic analysis, blood samples were collected from mice via cardiac puncture under terminal anaesthesia. Serial blood samples were collected from rats via a vascular access port located in the lateral saphenous vein. Mice and rats were euthanized in a CO2 chamber before collection of terminal blood samples or brain tissue. Blood samples were collected into polypropylene tubes containing K2EDTA anticoagulant and stored on ice until centrifuged for the preparation of plasma. Plasma was stored at −70°C. Whole brains were collected following decapitation, blotted dry, placed into polypropylene containers and then immediately frozen at approximately −70°C. CSF was collected from rats via cisterna magna puncture, placed in sterile polypropylene tubes, and stored at approximately −70°C. […] Treated samples were gently mixed at room temperature for 10 min, and then centrifuged at approximately 3000×g for 15 min at 15°C. The supernatants were transferred to 96-well plates or HPLC vials for analysis by LC-MS/MS. Pharmacokinetic parameters were calculated from composite mean plasma or tissue data using non-compartmental (oral and intravenous routes) and bi-exponential (intravenous route) analyses in Microsoft Excel.

[2] = system: T. b. brucei, T. b. rhodesiense and T. b. gambiense strains; assay: Whole cell assays across representative strains (text summary of Table 1); format: cell-based; conditions: Trypanosoma brucei; 72 h incubation; range over strains of Table 1; read-out: IC50 values across parasite strains
Experimental: Compounds to be tested were serially diluted in DMSO and added to 96-well plates to give final concentrations ranging from 5 to 0.01 µg/mL. T. b. brucei parasites in the log phase of growth were diluted in HMI-9 media and added to each well for a final concentration of 1×10^4 parasites per well. For the sensitivity assays using T. b. rhodesiense and T. b. gambiense, pararasites were cultured in MEM supplemented with Baltz components (8), diluted in the aforementioned culture media, and added to each well at a density of 1×10^3 cells/well. The final concentration of DMSO was 0.5% and the total volume was 100 µL/well. After a 72 h incubation, resazurin (Sigma-Aldrich, St. Louis, MO) was added to each well [20 µL of 25 mg/100 mL stock in phosphate buffered saline (PBS)] and incubated for an additional 4–6 h.[22] To assess cell viability, fluorescence was quantified using an EnVision Multilabel Plate Reader (Perkin Elmer, Waltham, MA) at an excitation wavelength of 530 nm and emission of 590 nm. Triplicate data points were averaged to generate sigmoidal dose-response curves and determine IC50 values using XLfit curve fitting software from IDBS (Guilford, UK). The IC50 is defined as the amount of compound required to decrease parasite or cell viability by 50% compared to those grown in the absence of the test compound. […]

[3] = system: T. b. brucei EATRO 110 strain; assay: Efficacy in the mouse model for acute HAT; format: in vivo
Experimental: For efficacy studies against acute infections, groups of 3–5 female Swiss Webster mice (Ace Animals, Boyertown, PA) were injected intraperitoneally (i.p.) with freshly drawn infected rat blood containing 2.5×10^5 trypanosomes (T. b. brucei EATRO 110 strain). The infection was allowed to progress for 24 h before treatment. Test compound was then given daily by bolus i.p. injection or oral gavage. Oxaborole compounds were formulated in 2% ethanol/5% dextrose and were given at a dose volume of 200 µL (containing 1.25 to 50 mg/kg) for a 25 g animal. Animals were monitored daily for signs of compound toxicity and clinical signs of trypanosomiasis for a period of 30 days. Mice were checked for parasitemia once per week by microscopic examination of smears prepared from the tail vein blood of animals. Animals remaining parasite free for more than 30 days beyond the end of the treatment period were considered cured. Control untreated animals typically succumbed to the infection within 4–5 days following i.p. inoculation with parasites.

## CC1(C)OB(O)c2cc(NC(=O)c3ccc(F)cc3C(F)(F)F)ccc21 [SCYX-7158]
[1]; 13.4 mg/kg oral, brain
  brain AUC0–24 h: 31400 ng·h/mL
[1]; 13.4 mg/kg oral, plasma
  time of Cmax: 6 h
[1]; 26 mg/kg oral, brain
  brain AUC0–24 h: 68000 ng·h/mL
[1]; male, CD-1, mouse, brain and plasma, 13.4 mg/kg oral
  Kp: 0.38
[1]; male, CD-1, mouse, brain/plasma, 26 mg/kg oral
  Kp: 0.6
[1]; male, CD-1, mouse, plasma, 13.4 mg/kg oral, read-out: absolute oral bioavailability
  bioavailability: 55%
[1]; male, CD-1, mouse, plasma, 13.4 mg/kg oral, read-out: oral clearance (Cl/F) (converted)
  CL/F: 2.72 mL/min/kg
[1]; male, CD-1, mouse, 4.3 mg/kg intravenous, plasma
  AUC(0-t): 48000 ng·h/mL
[1]; male, CD-1, mouse, 4.3 mg/kg intravenous, plasma, read-out: apparent elimination half-life (t1/2) (converted)
  half-life: 26.6 h
[1]; male, CD-1, mouse, 13.4 mg/kg oral, brain, read-out: Cmax in brain tissue
  Cmax: 4620 ng/mL
[1]; male, CD-1, mouse, 13.4 mg/kg oral, plasma
  AUC(0-t): 82000 ng·h/mL
[1]; male, CD-1, mouse, 13.4 mg/kg oral, plasma, read-out: Cmax
  Cmax: 6960 ng/mL
[1]; male, CD-1, mouse, 26 mg/kg oral, brain, read-out: Cmax in brain tissue
  Cmax: 8100 ng/mL
[1]; male, CD-1, mouse, 26 mg/kg oral, plasma
  AUC(0-t): 113000 ng·h/mL
[1]; male, CD-1, mouse, 26 mg/kg oral, plasma, read-out: Cmax
  Cmax: 9800 ng/mL
[2]
  IC50: 0.07 to 0.37 µg/mL (≈ 0.191 to 1.01 µM)
[3]; 1.25 mg/kg BID, 4 days, PO
  % Cured: 0%
  Avg. Days Parasite-Free: 8 days
  Cured/Total: 0/5
[3]; 1.25 mg/kg QD, 4 days, PO
  % Cured: 0%
  Avg. Days Parasite-Free: 4.4 days
  Cured/Total: 0/5
[3]; 2.5 mg/kg BID, 4 days, PO
  % Cured: 100%
  Avg. Days Parasite-Free: >30 days
  Cured/Total: 5/5
[3]; 2.5 mg/kg QD, 4 days, PO
  % Cured: 0%
  Avg. Days Parasite-Free: 8.4 days
  Cured/Total: 0/5
[3]; 5 mg/kg BID, 4 days, PO
  % Cured: 100%
  Avg. Days Parasite-Free: >30 days
  Cured/Total: 5/5
[3]; 5 mg/kg QD, 1 day, IP
  % Cured: 0%
  Avg. Days Parasite-Free: 6 days
  Cured/Total: 0/3
[3]; 5 mg/kg QD, 4 days, PO
  % Cured: 100%
  Avg. Days Parasite-Free: >30 days
  Cured/Total: 5/5
[3]; 10 mg/kg BID, 4 days, PO
  % Cured: 100%
  Avg. Days Parasite-Free: >30 days
  Cured/Total: 5/5
[3]; 10 mg/kg QD, 1 day, IP
  % Cured: 0%
  Avg. Days Parasite-Free: 9.3 days
  Cured/Total: 0/3
[3]; 10 mg/kg QD, 4 days, PO
  % Cured: 100%
  Avg. Days Parasite-Free: >30 days
  Cured/Total: 5/5
[3]; 25 mg/kg QD, 1 day, IP
  % Cured: 100%
  Avg. Days Parasite-Free: >30 days
  Cured/Total: 3/3
[3]; 25 mg/kg QD, 1 day, PO
  % Cured: 33%
  Avg. Days Parasite-Free: 8.3 days
  Cured/Total: 1/3
